Source: PubChem BioAssay (NCI)
Values joined by “and” are separate entries in the source; they are usually repeats but may differ in a detail not shown here. Equal entries are not always repeated.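 Five concentrations, 48 hours, 96-well plates. Here, GI50 denotes the concentration required for 50% inhibition of growth. TGI is the concentration that stops growth completely.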

Key:
Assay in all cases: growth of human tumour cells (NCI), 48 h
SK-MEL-28 melanoma = tested on: SK-MEL-28 melanoma
EKVX NSCLC = tested on: EKVX NSCLC
LOX IMVI melanoma = tested on: LOX IMVI melanoma
KM12 colon = tested on: KM12 colon
SNB-19 CNS = tested on: SNB-19 CNS
M14 melanoma = tested on: M14 melanoma
SF-295 CNS = tested on: SF-295 CNS
NCI-H460 lung = tested on: NCI-H460 lung
NCI-H226 lung = tested on: NCI-H226 lung
BT-549 breast = tested on: BT-549 breast

Row | SMILES | GI50 (SK-MEL-28 melanoma) | TGI (SK-MEL-28 melanoma) | GI50 (EKVX NSCLC) | TGI (EKVX NSCLC) | GI50 (LOX IMVI melanoma) | TGI (LOX IMVI melanoma) | GI50 (KM12 colon) | TGI (KM12 colon) | GI50 (SNB-19 CNS) | TGI (SNB-19 CNS) | GI50 (M14 melanoma) | TGI (M14 melanoma) | GI50 (SF-295 CNS) | TGI (SF-295 CNS) | GI50 (NCI-H460 lung) | TGI (NCI-H460 lung) | TGI (NCI-H226 lung) | GI50 (BT-549 breast) | TGI (BT-549 breast) | GI50 (NCI-H226 lung)
1 | CCC[CH2][Sn]1([CH2]CCC)[O]C(=O)C(C(C)C)N=Cc2ccccc2[O]1 (stereo unspecified) | 235 nM | 819 nM | 402 nM | 1670 nM | 163 nM | 401 nM | 648 nM | 1980 nM | 214 nM | 645 nM | 267 nM | 939 nM | 1040 nM | 2290 nM | 1280 nM | 2570 nM |  |  |  | 
2 | Cc1ccc(Nc2nc3c(s2)C(=O)c2ccccc2C3=O)c(C)c1 |  | 31100 nM |  | 33000 nM |  | 35400 nM |  | 33000 nM |  | 27700 nM |  | 28900 nM |  | 29400 nM |  | 54200 nM | 17600 nM |  |  | 
3 | O=C(O)CP(=S)(S)c1ccccc1 (stereo unspecified) |  | > 100000 nM |  | > 100000 nM |  | > 100000 nM |  | > 100000 nM |  | > 100000 nM |  | > 100000 nM |  | > 100000 nM |  | > 100000 nM | > 100000 nM |  |  | 
4 | COC(=O)c1cccc2cccc(C(=O)Nc3ccc(C)cc3C)c12 |  | > 100000 nM |  | > 100000 nM |  | > 100000 nM |  | > 100000 nM |  | > 100000 nM |  | > 100000 nM |  | > 100000 nM |  | > 100000 nM | > 100000 nM |  |  | 
5 | CC(C)N(C(=O)C12CC3CC(CC(C3)C1)C2)C(C)C |  | > 50000 nM |  | > 50000 nM |  | > 50000 nM |  | > 50000 nM |  | > 50000 nM |  | > 50000 nM |  | > 50000 nM |  | > 50000 nM | > 50000 nM |  |  | 
6 | NC(N)=NCCCn1c2c(c3ccccc3c1=O)C(=O)c1ccccc1-2 | 28600 nM | > 100000 nM | 16600 nM | 58500 nM | 14400 nM | 28800 nM | 21900 nM | 59100 nM | 18500 nM | 98200 nM | 18700 nM | 34500 nM | 1660 nM | 7720 nM | 15300 nM | > 100000 nM |  | 2280 nM | 5510 nM | 
7 | CC(=O)OC[C@]12CC[C@H]3[C@@H](C[C@H]4O[C@]45[C@@H](O)C=CC(=O)[C@]35C)[C@@H]1CC[C@@H]2[C@H](C)[C@H]1CC(C)=C(C)C(=O)O1 | 526 nM and 381 nM | 1090 nM | 601 nM and 753 nM | 1940 nM | 303 nM and 374 nM | 692 nM and 1190 nM | 467 nM and 349 nM | 1110 nM | 700 nM and 1160 nM | 899 nM and 2520 nM | 442 nM and 320 nM | 1110 nM | 974 nM and 1890 nM | 4230 nM | 588 nM and 1070 nM | 3530 nM | 1900 nM |  |  | 983 nM and 583 nM
8 | COc1cc(OC(=O)c2c(O)cc(O)c(O)c2C)cc(C)c1C(=O)Oc1cc(C)c(C(=O)O)c(O)c1 |  | > 100000 nM |  | > 100000 nM |  | > 100000 nM |  | > 100000 nM |  |  |  | > 100000 nM |  | > 100000 nM |  | > 100000 nM | > 100000 nM |  |  | 
